Reference: patent US8436039B2, “Inhibitors of the ATB(0,+) transporter and uses thereof” (Georgia Health Sciences University Research Institute, Inc., priority 2008, dated 2013)

Experiments:
mouse ATB^0,+ = target: T1, mouse ATB^0,+ (Mus musculus, UniProt Q9JMA9); experiment: Substrate-induced inward currents in X. laevis oocytes expressing mouse ATB^0,+ (two-microelectrode voltage clamp); type: cell-based; conditions: for inward currents induced in ATB^0,+-expressing oocytes: 2.5 mM; for inward currents induced in ATB^0,+-expressing oocytes / Michaelis constant (K0.5) of substrate-induced currents: voltage clamp, NaCl; for Michaelis constant (K0.5) of substrate-induced currents: saturation kinetics
T1 sequence (Q9JMA9 1-638): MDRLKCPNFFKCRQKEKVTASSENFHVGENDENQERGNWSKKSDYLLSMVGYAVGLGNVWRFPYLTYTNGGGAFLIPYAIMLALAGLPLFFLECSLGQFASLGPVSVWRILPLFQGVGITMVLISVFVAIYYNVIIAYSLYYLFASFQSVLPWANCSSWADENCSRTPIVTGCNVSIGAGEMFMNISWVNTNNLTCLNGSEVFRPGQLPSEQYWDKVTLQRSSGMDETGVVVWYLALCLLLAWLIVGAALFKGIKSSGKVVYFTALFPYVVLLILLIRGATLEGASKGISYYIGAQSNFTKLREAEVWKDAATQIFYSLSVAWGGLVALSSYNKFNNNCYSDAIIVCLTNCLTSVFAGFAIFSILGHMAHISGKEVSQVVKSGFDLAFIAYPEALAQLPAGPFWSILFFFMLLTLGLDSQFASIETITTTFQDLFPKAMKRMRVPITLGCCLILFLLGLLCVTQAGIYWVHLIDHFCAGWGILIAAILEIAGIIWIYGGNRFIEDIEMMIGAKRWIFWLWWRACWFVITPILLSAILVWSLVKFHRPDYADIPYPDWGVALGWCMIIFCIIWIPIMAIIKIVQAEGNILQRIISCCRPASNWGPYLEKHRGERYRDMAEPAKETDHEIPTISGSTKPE
Method: Capped cRNA from the cloned mouse or human ATB^0,+ cDNA was synthesized using the mMESSAGE mMACHTNE kit (Ambion, Austin, Tex., U.S.A.). Mature oocytes (stage IV or V) from X. laevis were injected with 50 ng of cRNA. Uninjected oocytes served as controls. The oocytes were used for electrophysiological studies 3-6 days after cRNA injection. Electrophysiological studies were performed by the two-microelectrode voltage-clamp method (Nakanishi et al., 2001, J. Physiol. 532, 297-304). Oocytes were superfused with an NaCl-containing buffer (100 mM NaCl, 2 mM KCl, 1 mM MgCl2, 1 mM CaCl2, 3 mM Hepes, 3 mM Mes and 3 mM Tris, pH 7.5), followed by the same buffer containing tryptophan derivatives. The membrane potential was clamped at −50 mV. The differences between the steady-state currents measured in the presence and absence of substrates were considered as the substrate-induced currents. In the analysis of the saturation kinetics of substrate-induced currents, the kinetic parameter K0.5 (i.e. substrate concentration necessary for induction of half-maximal current) was calculated by fitting the values of the substrate-induced currents to the Michaelis-Menten equation. The Na^+ and Cl^− activation kinetics of substrate-induced currents were analysed by measuring the substrate-specific currents in the presence of increasing concentrations of Na^+ (concentration of Cl^− kept constant at 100 mM) or in the presence of increasing concentrations of Cl^− (concentration of Na^+ kept constant at 100 mM). In these experiments, the composition of the superfusion buffer was modified to contain 2 mM potassium gluconate, 1 mM MgSO4 and 1 mM calcium gluconate in place of KCl, MgCl2 and CaCl2 respectively. The data from these experiments were analysed by the Hill equation to determine the Hill coefficient (h; number of Na^+ and Cl^− ions involved in the activation process). The kinetic parameters were determined by using the commercially available computer program Sigma Plot, version 6.0 (SPSS, Chicago, Ill., U.S.A.). Uninjected oocytes were used to determine the currents induced by tryptophan derivatives due to entry via transporters that may be constitutively expressed in the oocytes. At a concentration of 2.5 mM, the currents induced by these compounds were in the range of 0-3 nA in uninjected oocytes. These currents were less than 2% of the corresponding currents induced in ATB^0,+ cRNA-injected oocytes. Therefore the endogenous currents associated with the constitutively expressed transporters were not considered in the analysis of kinetic parameters of ATB^0,+ transport activity.
The above studies with the mammalian cell expression system have focused on the interaction of 1-methyltryptophan and other tryptophan derivatives with ATB^0,+ by examining the effects of these compounds on the transporter-mediated glycine uptake. These studies have shown convincingly that 1-methyltryptophan interacts with ATB^0,+, with the L-isomer having much higher affinity for the transporter than the D-isomer. However, these studies have not shown whether or not 1-methyltryptophan is actually a transportable substrate for ATB^0,+. It is possible that 1-methyltryptophan inhibits ATB^0,+-mediated glycine uptake simply by blocking the interaction of glycine with the substrate-binding site of the transporter, rather than by actually competing with glycine for the transport process. […] We wanted to know whether 1-methyltryptophan can actually be transported by ATB^0,+. For this, we used the X. laevis oocyte expression system. Since the transport process mediated by ATB^0,+ is electrogenic, exposure of ATB^0,+-expressing oocytes to transportable substrates will induce an inward current in an Na^+- and Cl^−-dependent manner. Exposure of the same oocytes to blockers will interfere with currents induced by transportable substrates, but will not induce currents by themselves. […]

human LAT1/4F2hc = human LAT1/4F2hc (Homo sapiens, UniProt Q01650); experiment: Inhibition of LAT1 transport function: L-valine uptake in HRPE cells co-expressing human LAT1 and human 4F2hc; type: cell-based; conditions: for effect on cDNA-induced valine uptake: 1 mM, L-[14C]valine 0.75 μM, 5 min
[1] = 1 mM substrate, Cl^- fixed at 100 mM
[2] = 1 mM substrate, Na^+ fixed at 100 mM

Sequence of human LAT1/4F2hc (Q01650 whole entry): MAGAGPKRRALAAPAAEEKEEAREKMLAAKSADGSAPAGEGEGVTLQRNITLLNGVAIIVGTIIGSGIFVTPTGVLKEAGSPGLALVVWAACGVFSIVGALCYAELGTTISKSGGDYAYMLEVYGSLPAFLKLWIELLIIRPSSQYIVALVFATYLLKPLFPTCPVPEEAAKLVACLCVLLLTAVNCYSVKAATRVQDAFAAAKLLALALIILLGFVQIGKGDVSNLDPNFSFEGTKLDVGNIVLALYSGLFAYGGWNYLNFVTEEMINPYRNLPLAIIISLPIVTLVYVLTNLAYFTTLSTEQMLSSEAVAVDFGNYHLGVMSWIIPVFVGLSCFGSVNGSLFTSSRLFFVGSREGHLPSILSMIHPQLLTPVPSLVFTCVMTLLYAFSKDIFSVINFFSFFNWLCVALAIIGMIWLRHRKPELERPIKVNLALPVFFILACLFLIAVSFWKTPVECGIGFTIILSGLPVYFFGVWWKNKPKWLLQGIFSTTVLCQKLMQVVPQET
Sequence of human LAT1/4F2hc (P08195 102-630 partner): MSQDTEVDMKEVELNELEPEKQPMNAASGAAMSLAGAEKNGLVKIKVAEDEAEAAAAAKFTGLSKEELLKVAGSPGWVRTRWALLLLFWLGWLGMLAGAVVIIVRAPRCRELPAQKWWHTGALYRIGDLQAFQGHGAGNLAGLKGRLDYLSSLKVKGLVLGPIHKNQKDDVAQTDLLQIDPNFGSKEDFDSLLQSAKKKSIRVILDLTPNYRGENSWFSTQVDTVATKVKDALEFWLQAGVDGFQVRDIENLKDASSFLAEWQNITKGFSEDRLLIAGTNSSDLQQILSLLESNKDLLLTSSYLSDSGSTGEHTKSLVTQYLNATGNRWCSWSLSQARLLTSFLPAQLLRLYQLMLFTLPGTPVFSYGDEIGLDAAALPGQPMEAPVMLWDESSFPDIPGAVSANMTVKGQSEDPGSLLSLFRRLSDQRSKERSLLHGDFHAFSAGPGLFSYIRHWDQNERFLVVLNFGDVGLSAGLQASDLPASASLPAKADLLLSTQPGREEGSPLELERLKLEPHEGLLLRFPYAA

| SMILES | inward currents induced in ATB^0,+-expressing oocytes (mouse ATB^0,+) | effect on cDNA-induced valine uptake (human LAT1/4F2hc) | type of inhibition of LAT1 (human LAT1/4F2hc) | Michaelis constant (K0.5) of substrate-induced currents (mouse ATB^0,+) [µM] | Hill coefficient (h), Na^+-activation kinetics of induced currents (mouse ATB^0,+; [1]) | Michaelis constant (K0.5) for Na^+ (mouse ATB^0,+; [1]) [mM] | Hill coefficient, Cl^- -activation kinetics of induced currents (mouse ATB^0,+; [2]) | Michaelis constant for Cl^- (mouse ATB^0,+; [2]) [mM] |
| --- | --- | --- | --- | --- | --- | --- | --- | --- |
| Cn1cc(CC(N)C(=O)O)c2ccccc21 (racemic) [1-methyl-DL-tryptophan] | induced marked currents | abolished completely | – | – | – | – | – | – |
| CC(N)(Cc1c[nH]c2ccccc12)C(=O)O (racemic) [α-methyl-DL-tryptophan] | failed to induce currents | abolished completely | competitive inhibitor | – | – | – | – | – |
| Cn1cc(C[C@@H](N)C(=O)O)c2ccccc21 [1-methyl-D-tryptophan] | – | – | – | 462 ± 78 | – | – | – | – |
| Cn1cc(C[C@H](N)C(=O)O)c2ccccc21 [1-methyl-L-tryptophan] | – | abolished completely | – | 93 ± 16 | 1.9±0.2 | 27 ± 2 | 1.2±0.2 | 2.1 ± 0.3 |
